Test results as given in ChEMBL document CHEMBL1201862, “PubChem BioAssay data set” (2004).
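The compound was tested at five concentrations on cells cultured in 96-well plates, with a 48-hour exposure period. Here, GI50 denotes the concentration required for 50% inhibition of growth.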 Active and inactive are the calls of the source. Rule as the data show it: active = GI50 up to about 1.1 µM and inactive = higher.

What was measured:
Assay in all cases: growth of human tumour cells (NCI), 48 h
786-0 = tested on: 786-0
A498 = tested on: A498
A549 = tested on: A549
CCRF-CEM = tested on: CCRF-CEM
DU-145 = tested on: DU-145
HCC 2998 = tested on: HCC 2998
HCT-15 = tested on: HCT-15
MCF7 = tested on: MCF7
MDA-MB-231 = tested on: MDA-MB-231
MDA-MB-435 = tested on: MDA-MB-435
NCI-H226 = tested on: NCI-H226
OVCAR-3 = tested on: OVCAR-3
OVCAR-4 = tested on: OVCAR-4
SF-268 = tested on: SF-268
SF-295 = tested on: SF-295
SK-MEL-2 = tested on: SK-MEL-2
SK-MEL-5 = tested on: SK-MEL-5
U-251 = tested on: U-251
UACC-257 = tested on: UACC-257
UACC-62 = tested on: UACC-62

SMILES | GI50 (786-0) | GI50 (A498) | GI50 (A549) | GI50 (CCRF-CEM) | GI50 (DU-145) | GI50 (HCC 2998) | GI50 (HCT-15) [µM] | GI50 (MCF7) | GI50 (MDA-MB-231) | GI50 (MDA-MB-435) | GI50 (NCI-H226) | GI50 (OVCAR-3) | GI50 (OVCAR-4) | GI50 (SF-268) | GI50 (SF-295) | GI50 (SK-MEL-2) | GI50 (SK-MEL-5) | GI50 (U-251) | GI50 (UACC-257) | GI50 (UACC-62)
Cc1ccc(OCC2OC(n3cnc4nc(N)nc(Cl)c43)CC2Oc2ccc(C)cc2)cc1 (stereo not given) | 22.1 µM (inactive) | 28.2 µM (inactive) | 21.3 µM (inactive) | 45.1 µM (inactive) | 18 µM (inactive) | 15.8 µM (inactive) | 14.9 | 15.1 µM (inactive) | 34.6 µM (inactive) | 27.9 µM (inactive) | 18.1 µM (inactive) | 18.6 µM (inactive) | 23.2 µM (inactive) | 15.4 µM (inactive) | 27.6 µM (inactive) | 17.7 µM (inactive) | 19.7 µM (inactive) | 29.6 µM (inactive) | 34.1 µM (inactive) | 27.5 µM (inactive)
CN(CCC#N)c1ccc(/C=C2\SC(=S)NC2=O)cc1 | 34.8 µM (inactive) | 30.1 µM (inactive) | 34.1 µM (inactive) | 6.75 µM (inactive) | 73.6 µM (inactive) | 51.6 µM (inactive) | 48.2 | 46.6 µM (inactive) | 56 µM (inactive) | 31.6 µM (inactive) | > 100 µM (inactive) | 27.7 µM (inactive) | 62.8 µM (inactive) | 63.1 µM (inactive) | 35.9 µM (inactive) | 35 µM (inactive) | 52 µM (inactive) | 32.8 µM (inactive) | > 100 µM (inactive) | 19.8 µM (inactive)
C=CCN(c1cc(OC)c2[nH]c(C(=O)O)c(C)c2c1[N+](=O)[O-])S(C)(=O)=O | > 100 µM (inactive) | > 100 µM (inactive) | > 100 µM (inactive) | > 100 µM (inactive) | > 100 µM (inactive) | > 100 µM (inactive) | > 100 | > 100 µM (inactive) | > 100 µM (inactive) | > 100 µM (inactive) | > 100 µM (inactive) | > 100 µM (inactive) | > 100 µM (inactive) | > 100 µM (inactive) | > 100 µM (inactive) | > 100 µM (inactive) | > 100 µM (inactive) | > 100 µM (inactive) | > 100 µM (inactive) | > 100 µM (inactive)
CC(=O)Nc1ccc2[nH]c(C(=O)N3CC(CCl)c4c3cc([N+](=O)[O-])c3ccccc43)cc2c1 (stereo not given) | 10.7 µM (inactive) | 0.863 µM (active) | 0.393 µM (active) | 0.879 µM (active) | 2.96 µM (inactive) | 6.4 µM (inactive) | 6.47 | 5.25 µM (inactive) | > 51.4 µM (inactive) | 14.7 µM (inactive) | 9.38 µM (inactive) | > 100 µM (inactive) | > 36.3 µM (inactive) | 1.98 µM (inactive) | 7.33 µM (inactive) | 13.8 µM (inactive) | 5.89 µM (inactive) | 3.48 µM (inactive) | > 100 µM (inactive) | 4.52 µM (inactive)
O=C1OC(c2ccccc2)=N/C1=C\c1ccc([N+](=O)[O-])cc1 | 26.9 µM (inactive) | 35.4 µM (inactive) | 82 µM (inactive) | 13.8 µM (inactive) | 47.4 µM (inactive) | > 100 µM (inactive) | > 100 | 60 µM (inactive) | 44.6 µM (inactive) | > 100 µM (inactive) | 3.96 µM (inactive) | 57.4 µM (inactive) | 34.5 µM (inactive) | 32.8 µM (inactive) | 32.7 µM (inactive) | 27.4 µM (inactive) | 66.8 µM (inactive) | 19.7 µM (inactive) | > 100 µM (inactive) | 26.5 µM (inactive)
